Test results taken from patent US11213514B2, “Alpha-1-adrenergic receptor agonist therapy” (The Regents of the University of California, priority 2016, dated 2022).

What was measured:
[1] = test system: mouse heart; experiment: Pressure overload cardiomyopathy caused by transverse aortic constriction; assay type: in vivo; details: mice, TAC day 0, osmotic minipumps from 4 weeks; both doses 20 ug/kg/d and 200 ug/kg/d; day 55
Procedure: FIG. 8. […] Cardiac function was measured before TAC, and every 2 weeks, using echocardiography.

[2] = test system: rabbits; details: 10 μg/kg; cited from earlier work
[3] = test system: wild type mice; experiment: Tail cuff blood pressure and heart rate in uninjured mice; assay type: in vivo, mouse; details: any dose 1-100 μg/kg/day, gavage twice daily for 5 days
Procedure: (§1) FIGS. 1A-1C. […] FIG. 1A. Blood pressure (BP) and heart rate (HR) were measured non-invasively in male mice for 10 consecutive days using a CODA Volume Pressure Recording tail cuff system (Kent Scientific). All daily values represent the average of at least 20 cuff inflations. Mice were acclimatized to the apparatus for the first 5 days, during which no drug was administered. […] FIG. 1B. […] Heart weight (HW, in mg) was indexed to tibia length (TL, in mm). FIG. 1C. Quantitative RT-PCR was performed using heart tissue snap frozen at the time of sacrifice. Target transcripts (ANP=atrial natriuretic peptide; MHCβ=myosin heavy chain beta; α-skAct=alpha skeletal actin) were quantified relative to two standard transcripts (Polr2a=DNA-directed RNA polymerase II, subunit A; TBP=TATA-binding protein).
Untreated mice were trained on the tail cuff apparatus daily for 5 days.
Tail cuff blood pressure (BP) and heart rate (HR) were obtained on awake mice by repeated measurements using a CODA Volume Pressure Recording tail cuff system (Kent Scientific).2 Mice were trained to the apparatus for 5 days prior to data collection. Systolic BP and HR measurements represent the average of at least 20 tail cuff inflations per mouse each afternoon.

[4] = test system: neonatal rat ventricular myocytes; experiment: Myocyte death caused by oxidative stress with H2O2; assay type: cell-based; details: neonatal rat ventricular myocytes (FIG. 7)
[5] = test system: atrial natriuretic peptide, beta myosin heavy chain, alpha-skeletal actin transcripts; experiment: qRT-PCR of molecular markers of hypertrophy in mouse hearts; assay type: in vivo; details: hearts of mice treated with dabuzalgron
Procedure: as §1
We used qRT-PCR to assay traditionally accepted molecular markers of hypertrophy in the hearts of mice treated with dabuzalgron. There was no change in the transcript abundance of atrial natriuretic peptide, beta myosin heavy chain, or alpha-skeletal actin. (FIG. 1C)
Total RNA was isolated from cells and tissue (QiagenRNeasy Plus mini kit #74134) and analyzed using a NanoDrop (ThermoScientific). For qRT-PCR, one […]g of RNA was reverse transcribed using High Capacity cDNA Reverse Transcription Kit (Life Technologies #4368814). Two step qRT-PCR reactions contained 2% of the cDNA product. All reactions were performed in triplicate in a Roche 480 Light Cycler. Relative quantitation of PCR products used the ΔΔCt method relative to two validated reference genes (Tbp and Polr2a). Similar efficiencies were confirmed for all primers. All probes and primers were from Roche.

[6] = test system: wild type mice; experiment: Indexed heart weight after 7-day gavage treatment in uninjured mice; assay type: in vivo, mouse; details: for Body weight, final / Heart weight / Heart weight/tibia length / Heart/body weight: uninjured wild type mice, 7 days
Procedure: as §1

[7] = test system: ERK; experiment: ERK activation in neonatal rat ventricular myocytes (pERK/ERK Western blot); assay type: cell-based; details: Rattus norvegicus, Ventricular myocyte; uninjured NRVMs, 15 minutes, propranolol pre-treatment; read-out: EC50, ERK phosphorylation
Text: FIGS. 4A-4F. […] The reaction was stopped immediately and lysates were blotted for total and phospho-ERK (pERK). FIG. 4A. Representative Western blot. FIG. 4B. […] FIG. 4C. Summary of pERK/ERK for experiments using 5 different NRVM isolations. The average pERK/ERK ratio for each experiment was derived from at least 2 individual wells and normalized to the pERK/ERK ratio for vehicle treated NRVMs. FIG. 4D and FIG. 4E. […] Heart lysates were blotted for pERK and ERK. Results were compared using one way ANOVA with Tukey post-test. FIG. 4F.
Dabuzalgron protects neonatal rat ventricular myocytes from cell death due to doxorubicin. […] (FIG. 4C).
Female Sprague-Dawley rats were from Charles River. NRVMs were isolated as previously described.7 Briefly, hearts from 1-2 day old rat pups were minced, digested serially in collagenase (Worthington)-containing solution, filtered, then pre-plated to exclude non-myocyotes. NRVMs were then plated on laminin-coated dishes in DMEM with 5% fetal bovine serum (Sigma F2442) for 24 hours. Experiments were carried out after 36-96 hours of serum starvation in the presence of insulin, transferrin, and BrdU. […]
All results are presented as mean±SEM. […] EC50 for ERK activation was calculated using sigmoidal dose-response analysis (Prism).

[8] = test system: pigs; details: 10 μg/kg; cited from earlier work
[9] = any dose 1-100 μg/kg/day, gavage twice daily for 7 days

For `Cc1c(OCC2=NCCN2)ccc(Cl)c1NS(C)(=O)=O` [dabuzalgron, N-[6-chloro-3-(4,5-dihydro-1H-imidazol-2-ylmethoxy)-2-methylphenyl]methanesulfonamide], the “cardiac function (fractional shortening) compared with vehicle” value [1] is given as “significant improvement”, the “effect on BP” value [2] is given as “no effect” and the HR vs vehicle [3] is given as “no difference”. The “systolic BP vs vehicle” value [3] was “no difference”, the “myocyte death caused by oxidative stress with H2O2” value [4] was “prevents” and the “transcript abundance of alpha-skeletal actin” value [5] was “no change”. For the same compound, the “transcript abundance of atrial natriuretic peptide” value [5] was “no change”, the “transcript abundance of beta myosin heavy chain” value [5] was “no change” and the “change in body weight” value [6, 9] was “no measurable change”. For the same compound, the “change in heart weight” value [6, 9] was “no measurable change”, the “Body weight, final” value ([6]; 0.2 μg/kg/day gavage) was 25.3 ± 0.4 g and the Heart weight ([6]; 0.2 μg/kg/day gavage) was 106 ± 4 mg. For the same compound, the Heart weight/tibia length ([6]; 0.2 μg/kg/day gavage) was 6.1 ± 0.3 mg/mm, the Heart/body weight ([6]; 0.2 μg/kg/day gavage) was 0.42 ± 0.01% and the “Body weight, final” value ([6]; 2 μg/kg/day gavage) was 25.9 ± 0.8 g. The Heart weight ([6]; 2 μg/kg/day gavage) was 106 ± 4 mg, the Heart weight/tibia length ([6]; 2 μg/kg/day gavage) was 6.1 ± 0.2 mg/mm and the Heart/body weight ([6]; 2 μg/kg/day gavage) was 0.41 ± 0.02%. For the same compound, the “Body weight, final” value ([6]; 20 μg/kg/day gavage) was 27.3 ± 1.1 g, the Heart weight ([6]; 20 μg/kg/day gavage) was 110 ± 4 mg and the Heart weight/tibia length ([6]; 20 μg/kg/day gavage) was 5.9 ± 0.2 mg/mm. For the same compound, the Heart/body weight ([6]; 20 μg/kg/day gavage) was 0.41 ± 0.01%, the “Body weight, final” value ([6]; 200 μg/kg/day gavage) was 27.4 ± 1.6 g and the Heart weight ([6]; 200 μg/kg/day gavage) was 113 ± 6 mg. It also gave a Heart weight/tibia length ([6]; 200 μg/kg/day gavage) of 6.1 ± 0.3 mg/mm, a Heart/body weight ([6]; 200 μg/kg/day gavage) of 0.41 ± 0.01% and an EC50 [7] of 480 nM. For the same compound, the “effect on BP” value [8] was “no effect”.
